Source: ChEMBL document CHEMBL5150042, “Phenolic furanochromene hydrazone derivatives: Synthesis, antioxidant activity, ferroptosis inhibition, DNA cleavage and DNA molecular docking studies” (Bioorg Med Chem, 2022)
Calls of active or inactive are those of the source. The rule behind the calls is not given here.

How the values were obtained:
[1] = Antioxidant activity assessed as trolox equivalent of Cu2+ reducing activity incubated for 30 mins by CUPRAC assay relative to trolox; assay type: functional
[2] = test system: HaCaT; assay: Anti-ferroptotic activity against erastin-induced ferroptosis in human HaCaT cells assessed as cell viability at 5 uM pretreated with compound for 4 hrs followed by erastin challenge for 24 hrs by MTT assay (reference value: 45%); assay type: functional; conditions: time 28 hrs, read-out: Activity
[3] = test system: DNA; assay: Induction of copper-mediated Escherichia coli supercoiled pBR322 DNA cleavage assessed as increase in cleaved DNA with significant amount of supercoiled form at 1 mM incubated for 24 hrs in presence of Cu2+ ion by agarose gel electrophoresis analysis; assay type: nucleic-acid assay
[4] = Antioxidant activity assessed as DPPH radical scavenging activity incubated for 30 mins under dark condition by microplate reader based assay; assay type: functional
[5] = test system: DNA; assay: Induction of copper-mediated Escherichia coli supercoiled pBR322 DNA cleavage at 100 uM incubated for 24 hrs in presence of Cu2+ ion by agarose gel electrophoresis analysis; assay type: nucleic-acid assay
[6] = test system: DNA; assay: Induction of copper-mediated Escherichia coli supercoiled pBR322 DNA cleavage assessed as increase in open circular form of DNA at 1 mM incubated for 24 hrs in presence of Cu2+ ion by agarose gel electrophoresis analysis; assay type: nucleic-acid assay
[7] = test system: DNA; assay: Induction of copper-mediated Escherichia coli supercoiled pBR322 DNA cleavage assessed as increase in open circular form of DNA with small amount of linear form at 1 mM incubated for 24 hrs in presence of Cu2+ ion by agarose gel electrophoresis analysis; assay type: nucleic-acid assay
[8] = test system: DNA; assay: Induction of copper-mediated Escherichia coli supercoiled pBR322 DNA cleavage assessed as cleavage of DNA into smaller fragments at 1 mM incubated for 24 hrs in presence of Cu2+ ion by agarose gel electrophoresis analysis; assay type: nucleic-acid assay
[9] = test system: DNA; assay: Induction of Escherichia coli supercoiled pBR322 DNA cleavage incubated for 90 mins in presence of Cu2+ ion by agarose gel electrophoresis analysis; assay type: nucleic-acid assay; conditions: dose 3.9-500 µM, DDE = dose-dependent effect
[10] = test system: DNA; assay: Induction of copper-mediated Escherichia coli supercoiled pBR322 DNA cleavage assessed as increase in open circular form and linear form of DNA at 100 uM incubated for 24 hrs in presence of Cu2+ ion by agarose gel electrophoresis analysis; assay type: nucleic-acid assay

SMILES	Ratio [1]	viability at 5 µM [2] [%]	Activity [3]	IC50 ([4]; read-out: IC50) [µM]	Activity [5]	Activity [6]	Activity [7]	Activity [8]	Activity [9]	Activity [10]	IC50 [4]
CC1(C)C=Cc2c(ccc3cc(C(=O)N/N=C/c4c(O)cc(O)cc4O)oc23)O1	1.36	56	Active	81							
CC1(C)C=Cc2c(ccc3cc(C(=O)N/N=C/c4ccc(O)cc4)oc23)O1	0.79			> 100	Active	Active					
COc1cccc(/C=N/NC(=O)c2cc3ccc4c(c3o2)C=CC(C)(C)O4)c1O	0.85	44		> 100			Active				
COc1cc(/C=N/NC(=O)c2cc3ccc4c(c3o2)C=CC(C)(C)O4)ccc1O	1.75	44		87.8	Active		Active				
O=C1O[C@H]([C@@H](O)CO)C(O)=C1O [ASCORBIC ACID]	0.72			51.2							
CC1(C)C=Cc2c(ccc3cc(C(=O)N/N=C/c4cc(O)c(O)cc4O)oc23)O1	2.43	56		24.3				Active			
COc1ccc(/C=N/NC(=O)c2cc3ccc4c(c3o2)C=CC(C)(C)O4)c(O)c1	1.01	> 50		67.4			Active				
COc1cc(O)c(/C=N/NC(=O)c2cc3ccc4c(c3o2)C=CC(C)(C)O4)c(OC)c1	0.97	41		> 100			Active				
COc1ccc(/C=N/NC(=O)c2cc3ccc4c(c3o2)C=CC(C)(C)O4)cc1O	1.36	44		> 100	Active		Active				
CC1(C)C=Cc2c(ccc3cc(C(=O)N/N=C/c4cc(O)cc(O)c4)oc23)O1	1.27			> 100	Active	Active					
CC1(C)C=Cc2c(ccc3cc(C(=O)N/N=C/c4ccc(O)cc4O)oc23)O1	1.42			70.1							
CC1(C)C=Cc2c(ccc3cc(C(=O)N/N=C/c4ccc(O)c(O)c4)oc23)O1	3.97	60		5.92				Active	Dde	Active	
COc1cc(/C=N/NC(=O)c2cc3ccc4c(c3o2)C=CC(C)(C)O4)cc(Br)c1O	1.09	59		> 100	Active		Active				
CC1(C)C=Cc2c(ccc3cc(C(=O)N/N=C/c4ccc(O)c(O)c4O)oc23)O1	2.89	70		10.1		Active				Active	
CC1(C)C=Cc2c(ccc3cc(C(=O)N/N=C/c4cccc(O)c4O)oc23)O1	1.75		Active	6.04							
CC1(C)C=Cc2c(ccc3cc(C(=O)N/N=C/c4cccc(O)c4)oc23)O1					Active	Active					
COc1ccc(O)c(/C=N/NC(=O)c2cc3ccc4c(c3o2)C=CC(C)(C)O4)c1	1.22	44		> 100			Active				
COc1cc(/C=N/NC(=O)c2cc3ccc4c(c3o2)C=CC(C)(C)O4)cc(I)c1O	0.99	59		> 100	Active		Active				
COc1cc(/C=N/NC(=O)c2cc3ccc4c(c3o2)C=CC(C)(C)O4)cc([N+](=O)[O-])c1O	1.52	59		> 100	Active		Active				
O=c1c(O)c(-c2ccc(O)c(O)c2)oc2cc(O)ccc12 [FISETIN]		70									
Cc1cc(/C=N/NC(=O)c2cc3ccc4c(c3o2)C=CC(C)(C)O4)cc(C)c1O	1.11	50		61.2	Active		Active				
CC1(C)C=Cc2c(ccc3cc(C(=O)N/N=C/c4cc(O)c(O)c(O)c4)oc23)O1	2.59	56	Active	27.9							
COc1cc(/C=N/NC(=O)c2cc3ccc4c(c3o2)C=CC(C)(C)O4)cc(OC)c1O	2.22	57			Active		Active				Nd(Insoluble)
CC1(C)C=Cc2c(ccc3cc(C(=O)N/N=C/c4ccccc4O)oc23)O1	0.48	62				Active					
Cc1ccc(O)c(/C=N/NC(=O)c2cc3ccc4c(c3o2)C=CC(C)(C)O4)c1	0.95	62		> 100			Active				
CC1(C)C=Cc2c(ccc3cc(C(=O)N/N=C/c4cc(O)ccc4O)oc23)O1	1.8	69		9.1		Active					
